From patent publication US6346278B1, “Lipid extract having anti-inflammatory activity” (Pharmalink International Limited, priority 1995, dated 2002)

What was measured:
arthritic rats = test: Anti-arthritic assay: adjuvant-induced polyarthritis, treatment days 10-13; assay type: in vivo; details: for % Reduction in Inflammation: rear paw thickness day 14 vs control
Description: Though more time consuming, this assay is of more value than the acute assay (described above) as it detects not only (i) those anti-inflammatory drugs acting in the acute assay (but often at lower ED50 values) but also (ii) other agents e.g. clobuzarit (CIoZic^R) or lobenzarit (CCA), which obviously have unique arthritis-suppressant properties but are not anti-oedemic/antipyretic or otherwise detectable in acute assays.
The protocol used is to pre-establish disease by injecting the arthritigen on Day 0, look for first signs of paw inflammation (usually manifest on Days 10-12) and then dose the animals with test materials for four days. Over this period, the paw inflammation in the untreated control animals “blooms” rapidly to reach a near maximum on Day 14. Drugs acting over this time-frame to hold down the paw swelling are certainly anti-symptomatic but rarely disease-ablating. On ceasing treatment, there is usually a recrudescence in symptoms. This however is a positive feature of this assay as it clearly indicates a) the drug has a finite action but gives some idea of its duration of efficacy by the rapidity (or otherwise) of the rebound; and b) the animals with minimal signs of disease on Day 14 reflected a positive drug effect rather than failure to respond to the original arthritigen (i.e. false negatives). An accurate description of this assay is “late prophylaxis”. Obviously by delaying treatment until after Day 14, one can look for “therapeutic activity”, but since changes may be slow or negligible within four days (even with some powerful NSAIDs), collection of adequate data is difficult.
Details of the protocol used are: inject the arthritigen into the tailbase of female Wistar rats (160-200 gm)=800 mcg heat-killed Mycobact tuberculosis suspended in 0.1 ml squalane in such a fashion as to avoid any blood vessels and to promote optimal drainage into the lymphatics. Ten days later, the animals were weighed, the thickness of the rear paws and tail was measured and signs of inflammation in the forepaws scored on a scale of 0 to 4 +. After dosing with test compounds once daily for four days (i.e. on Days 10 through 13 post-arthritigen), these measurements were repeated on Days 14 and 18 (i.e. after completion of treatment and again after four days rebound) to monitor the arthritis development. […]
Rats with the first signs of arthritis 10 days after inoculating with mycobacterial arthritogen were then treated orally with the test materials for 4 days only. Effectiveness of the test materials was measured as […] rear paw thickness on day 14 when compared to the control group H.

[1] = test system: Kaolin-induced paw oedema; test: Kaolin-induced paw oedema; assay type: in vivo, rat; details: 150 mg/kg p.o., without synergist
Method: Kaolin-induced paw oedema was investigated as a possible assay for PCO since this inflammation is slower developing than that induced with carrageenin (which recedes after three hours). The protocol involves injecting 5 mg kaolin, suspended in water (not saline, in which it aggregates), into each rear paw 40 minutes after dosing the rats with PCO given both p.o. or i.p. as dispersions prepared with 0.02% Tween in either water (p.o.) or saline (i.p.). The paw swelling was then read two hours and five hours after the kaolin injection.

stomach = test: Gastro-toxicity assay; assay type: in vivo, rat
Method: Gastro toxicity studies were carried out on female Wistar rats with established arthritis initiated with collagen (type II), not on drug therapy. Aspirin and PCO were suspended with 0.04% Tween-20 for oral dosing, after fasting animals overnight. […]

Carrageenin paw oedema = test: Acute carrageenin paw oedema assay; assay type: in vivo, rat; details: for % Inhibition Oedema 1 hr / % Inhibition Oedema 2 hr: 30 mg/kg
Method: Female Wistar rats (180-220 gm) were pre-dosed p.o. or i.p. with test formulations. 40 minutes later they were injected in each rear paw with 0.1 ml saline containing 0.6 mg Na carrageenin. The subsequent paw oedema was quantified by measuring the increase in paw thickness after one and two hours with a screw gauge micrometer. […] [The oedema recedes after three hours with this dose of carrageenin.]

[2] = test system: collagen (II)-induced auto-allergic arthritis; test: Collagen (II)-induced auto-allergic arthritis; details: for Rear paw inflammation Day 2 / Rear paw inflammation Day 4: paw inflamed by collagen (II) injection; for Percent Inhibitions Front paw inflam. / Percent Inhibitions Left rear paw / Percent Inhibitions Right rear paw: day 14
Method: Collagen (Type II) induced polyarthritis was induced in female Wistar rats by injection of collagen (II) with a non-arthritogenic adjuvant to sensitise the test animals.
PCO was given orally after dilution into olive oil (8 mg/ml) and administered at 2.5 ml/kg/day to give 20 mg/kg.
Prophylactic treatment was from day 1 to day 13 (i.e. total […]) orally (p.o.). […] PCO was diluted into olive oil (6 mg/ml) for p.o. dosing at 2.5 ml/kg/day to give 15 mg/kg, and diluted into olive oil-cineole (17.3 v/v) (10 mg/ml) for t.d. administration at 2 ml/kg/day to give 20 mg/kg.
Seatone™ was administered p.o. at 300 mg/kg; Nurofen™ was administered p.o. at 50 mg/kg; Na Aurothiomalate (ATM) was administered in 8 doses at 6.3 mg/kg subcutaneously (s.c.).

[3] = 50 mg/kg p.o. x15, prophylactic
[4] = 50 mg/kg p.o. x15, prophylactic day 1 to day 13
[5] = with MPL (Misoprostal 0.5 mg/kg p.o.)
[6] = 6.3 mg/kg s.c. in saline x8, every second day
[7] = 6.3 mg/kg s.c. x8, every second day

With `CC(=O)Oc1ccccc1C(=O)O` [Aspirin] the “effective dose in the standard anti-arthritic assay” value (arthritic rats; adjuvant-induced rat polyarthritis) was 300 mg/kg, the “% Inhibition Oedema 2 HR” value ([1]; 2 HR) was 55% and the “% Inhibition Oedema 5 HR” value ([1]; 5 HR) was 51%. The “effect on the stomach (in words)” value (stomach; 300 mg/kg (20 times an effective dose of PCO)) was “considerable gastric damage”, the Gastric lesion index (stomach; High arthritis with 0.15 N HCl co-administered orally, oral in 0.04% Tween-20) was over 112 and the Gastric lesion index (stomach; High arthritis, Day 15, oral in 0.04% Tween-20, fasted overnight) was 82. The Gastric lesion index (stomach; Low arthritis, Day 32, oral in 0.04% Tween-20, fasted overnight) was 41 and the ED50 (Carrageenin paw oedema; Rattus norvegicus, acute carrageenin assay) was about 150 mg/kg.
In the case of `CC(C)Cc1ccc(C(C)C(=O)O)cc1` (stereo not shown) [Nurofen, ibuprofen], the “% Inhibition Front paw” value ([2]; 40 mg/kg, days 8-14) is reported as 72%, the “% Inhibition Rear L. paw” value ([2]; 40 mg/kg, days 8-14) is reported as 54% and the “% Inhibition Rear R. paw” value ([2]; 40 mg/kg, days 8-14) is reported as 07%. The “Mean Differences Days 8-15 Ft. Paw Inflam.” value ([2]; 40 mg/kg, days 8-14) was 0.7 +, the “Mean Differences Days 8-15 Rear R. Paw” value ([2]; 40 mg/kg, days 8-14) was 1.48 mm and the “Mean Differences Days 8-15 ΔWt” value ([2]; 40 mg/kg, days 8-14) was “+15 gm”. For the same molecule, the “Mean Differences Days 8-15 Rear L. Paw” value ([2]; 40 mg/kg, days 8-14 (7 daily doses), therapeutic) was 0.82 mm, the “Day 14: Signs arthritis Front paw inflam.” value [2, 3] was 2.5+ and the “Day 14: Signs arthritis Left rear paw” value [2, 3] was 1.35 mm. For the same molecule, the “Day 14: Signs arthritis Right rear paw” value [2, 3] was 1.72 mm, the “Percent Inhibitions rear paw inflammation Day 2” value [2, 3] was “(−05) %” and the “Percent Inhibitions rear paw inflammation Day 4” value [2, 3] was “(−20) %”. The “ΔWt(0-14)” value [2, 3] was “+12 gm”, the “Rear paw inflammation Day 2” value [2, 4] was 1.48 mm and the “Rear paw inflammation Day 4” value [2, 4] was 1.52 mm. For the same molecule, the “Percent Inhibitions Front paw inflam.” value [2, 3] was “(−14) %”, the “Percent Inhibitions Left rear paw” value [2, 3] was 32% and the “Percent Inhibitions Right rear paw” value [2, 3] was 02%. For the same molecule, the “Differences Days 15-18 (Rebound) Front paw” value ([2]; after 40 mg/kg, days 8-14) was 1.1+, the “Differences Days 15-18 (Rebound) Rear L. paw” value ([2]; after 40 mg/kg, days 8-14) was 0.38 and the “Differences Days 15-18 (Rebound) Rear R. paw” value ([2]; after 40 mg/kg, days 8-14) was 0.38. The “Differences Days 15-18 (Rebound) ΔWt.” value ([2]; after 40 mg/kg, days 8-14) was “+05”, the “% Inhibition Oedema 1 hr” value (Carrageenin paw oedema; [5]) was 56% and the “% Inhibition Oedema 2 hr” value (Carrageenin paw oedema; [5]) was 58%. The “% Inhibition Oedema 1 hr” value (Carrageenin paw oedema; without MPL) was 37% and the “% Inhibition Oedema 2 hr” value (Carrageenin paw oedema; without MPL) was 42%.
With `O=C([O-])CC([S-])C(=O)[O-].[Au+].[Na+].[Na+]` (stereo not shown) [ATM, sodium aurothiomalate] the “Rear paw inflammation Day 2” value [2, 6] was 1.00 mm, the “Rear paw inflammation Day 4” value [2, 6] was 0.68 mm and the “Day 14: Signs arthritis Front paw inflam.” value [2, 7] was 1.3+. For the same molecule, the “Day 14: Signs arthritis Left rear paw” value [2, 7] was 0.47 mm, the “Day 14: Signs arthritis Right rear paw” value [2, 7] was 0.70 mm and the “Percent Inhibitions rear paw inflammation Day 2” value [2, 7] was 29%. The “Percent Inhibitions rear paw inflammation Day 4” value [2, 7] was 46%, the “Percent Inhibitions Front paw inflam.” value [2, 7] was 41% and the “Percent Inhibitions Left rear paw” value [2, 7] was 76%. For the same molecule, the “Percent Inhibitions Right rear paw” value [2, 7] was 60%, the “ΔWt(0-14)” value ([2]; 6.3 mg/kg s.c. x8, weight gain may be misleading (possible incipient kidney damage)) was “(+24) gm” and the toxic dose ([2]; s.c. in saline every second day, higher doses were toxic) was over 6.3 mg/kg.
With `COc1ccc2c(c1)c(CC(=O)O)c(C)n2C(=O)c1ccc(Cl)cc1` [Indomethacin, indomethacin] the “% Reduction in Inflammation” value (arthritic rats; 1 mg/kg orally for 4 days) was 26%, the “% Reduction in Inflammation” value (arthritic rats; 3 mg/kg orally for 4 days) was 68% and the “% Reduction in Inflammation” value (arthritic rats; 5 mg/kg orally for 4 days) was 83%.
